Source: patent US20140248252A1, “New Salt And Medical Use” (Pfizer Limited, priority 2011, published 2014)

Legend:
[1] = tested on: uric acid in blood; test: Multiple dose study (SDD, 14 days): uric acid in blood of healthy subjects; assay type: in vivo, human; settings: 600 mg BID; 30 subjects enrolled in the study
Description: (§1) Uric acid measurements were performed using a commercial colorimetric assay kit (Beckman Coulter).
Multiple oral doses of 100 mg twice daily (BID), 300 mg BID, and 600 mg BID of 4-[2-(5-amino-1H-pyrazol-4-yl)-4-chlorophenoxy]-5-chloro-2-fluoro-N-(1,3-thiazol-4-yl)benzenesulfonamide SDD dispersion for oral administration, and placebo, were investigated for 14 days. Subjects were fasted overnight prior to the morning doses and for at least 2 hours prior to the evening doses. Food was withheld for at least 2 hours postdose.
A total of 30 subjects (all male) were enrolled in the study and 27 subjects completed the study (three subjects were withdrawn due to adverse events during treatment with 600 mg BID 4-[2-(5-amino-1H-pyrazol-4-yl)-4-chlorophenoxy]-5-chloro-2-fluoro-N-(1,3-thiazol-4-yl)benzenesulfonamide).

[2] = tested on: uric acid in blood; test: Multiple dose study (TS, 14 days): uric acid in blood of healthy and elderly subjects; assay type: in vivo, human
Description: as §1
(§2) Multiple oral doses of 4-[2-(5-amino-1H-pyrazol-4-yl)-4-chlorophenoxy]-5-chloro-2-fluoro-N-(1,3-thiazol-4-yl)benzenesulfonamide TS dispersion for oral administration, and placebo, were investigated for 14 days, as follows: • healthy subjects, 300 mg twice daily (BID,) • healthy subjects, 450 mg BID, and • elderly subjects, 300 mg BID.
(§3) Subjects were fasted overnight prior to the morning doses and for at least 2 hours prior to the evening doses. Food was withheld for at least 2 hours postdose.
A total of 49 subjects were enrolled in the study of which 39 received 4-[2-(5-amino-1H-pyrazol-4-yl)-4-chlorophenoxy]-5-chloro-2-fluoro-N-(1,3-thiazol-4-yl)benzenesulfonamide TS and 10 received placebo.

[3] = tested on: uric acid in urine; test: Multiple dose study (TS, 14 days): fraction of uric acid excreted in urine; assay type: in vivo, human; settings: for Fraction excreted of uric acid: urine
Description: as §2, §3
Uric acid was also measured in urine collected over 24 hours prior to dosing on Day 1, and then on Days 6, 14 and 16. The percent excreted fraction of uric acid in urine was calculated and analyzed with a linear mixed effects model.

[4] = biological target: T1, URAT-1 transporter (Homo sapiens, UniProt Q96S37); test: URAT-1 inhibitor activity: [14C]-uric acid uptake in HEK-URAT1 cells; assay type: cell-based; settings: [14C]-uric acid (20 μM), 2 minutes, normalised to the standard compound benzbromarone, read-out: inhibition of uric acid uptake (IC50)
T1 construct: expressed in transfected cells; host or cells: HEK293 cells, transient transfection with Lipofectamine 2000
T1 sequence (Q96S37 1-553): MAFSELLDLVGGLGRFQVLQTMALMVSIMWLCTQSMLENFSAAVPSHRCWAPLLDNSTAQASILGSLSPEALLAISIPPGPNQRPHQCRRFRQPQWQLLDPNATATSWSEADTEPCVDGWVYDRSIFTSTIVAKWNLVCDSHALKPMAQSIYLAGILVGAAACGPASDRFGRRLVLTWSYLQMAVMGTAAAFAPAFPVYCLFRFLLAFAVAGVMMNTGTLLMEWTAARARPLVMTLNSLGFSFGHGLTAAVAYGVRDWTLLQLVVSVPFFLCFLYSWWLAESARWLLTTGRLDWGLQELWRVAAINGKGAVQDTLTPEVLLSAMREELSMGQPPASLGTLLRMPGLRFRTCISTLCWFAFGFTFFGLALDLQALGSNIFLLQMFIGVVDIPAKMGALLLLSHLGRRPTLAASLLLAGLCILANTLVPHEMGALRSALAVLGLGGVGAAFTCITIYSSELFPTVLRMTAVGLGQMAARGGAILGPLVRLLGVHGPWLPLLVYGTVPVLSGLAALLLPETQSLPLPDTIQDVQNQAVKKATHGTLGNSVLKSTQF
Description: The potency of 4-[2-(5-amino-1H-pyrazol-4-yl)-4-chlorophenoxy]-5-chloro-2-fluoro-N-(1,3-thiazol-4-yl)benzenesulfonamide as an inhibitor of the URAT-1 transporter was determined as follows.
HEK293 cells were grown in medium consisting of Dulbecco's modified Eagle medium (DMEM) with L-GlutaMax (4.5 g of glucose per litre), supplemented with heat-inactivated foetal calf serum (10% v/v), 100 U/mL penicillin and 100 μg/mL streptomycin. The HEK cells were routinely cultured in 75 cm^2 tissue culture flasks in a humidified incubator at approximately 37° C. in approximately 95% air/5% CO2. […]
One day after transfection, culture medium was removed from the wells and the cells were pre-incubated with 0.2 mL of chlorine-free incubation medium (125 mM Na-gluconate, 4.8 mM K-gluconate, 1.3 mM Ca-gluconate, 1.2 mM KH2PO4, 1.2 mM MgSO4, 5.6 mM D-glucose, 25 mM HEPES, pH 7.4), in the absence and presence of 4-[2-(5-amino-1H-pyrazol-4-yl)-4-chlorophenoxy]-5-chloro-2-fluoro-N-(1,3-thiazol-4-yl)benzenesulfonamide (0-30 μM), for 15 minutes at approximately 37° C. […] The concentrations of [^14C]-uric acid were determined by liquid scintillation counting (LSC). The inhibition of [^14C]-uric acid transport was also determined in the presence of the known inhibitor benzbromarone (30 μM). […]
The amount of radioactivity present in cell lysate samples was determined by liquid scintillation counting (LSC). […]

[5] = tested on: uric acid in blood; test: Single dose study: uric acid in blood of healthy subjects (colorimetric assay kit); assay type: in vivo, human; settings: fasted
Description: as §1
Single doses of 4-[2-(5-amino-1H-pyrazol-4-yl)-4-chlorophenoxy]-5-chloro-2-fluoro-N-(1,3-thiazol-4-yl)benzenesulfonamide SDD (‘SDD’) dispersion for oral administration, ranging from 10 mg to 2400 mg, were investigated. In addition, single doses of 4-[2-(5-amino-1H-pyrazol-4-yl)-4-chlorophenoxy]-5-chloro-2-fluoro-N-(1,3-thiazol-4-yl)benzenesulfonamide tosylate (‘TS’) dispersion for oral administration, ranging from 200 mg to 1000 mg, were also investigated.
The following doses were investigated and all doses were given in the fasted state with the exception of 200 mg and 1000 mg SDD dispersions, which were given in both the fasted state and after a high-fat meal (‘fed’).
A total of 61 subjects (all male) participated and all received at least one dose of SDD or TS dispersion for oral administration.
Mean data of uric acid levels per dose group are given as follows: • SDD fasted: Table 5 • SDD fed and fasted Table 6 • TS Table 7

[6] = Stability of the tosylate salt versus free base and other salts; assay type: physicochemical
[7] = Aqueous solubility of the tosylate salt; assay type: physicochemical
[8] = tested on: uric acid in urine; test: Multiple dose study (TS, 14 days): fraction of uric acid excreted in urine; assay type: in vivo, human; settings: day 10
[9] = TS oral 300 mg BID, elderly subjects, day 6
[10] = TS oral 300 mg BID, elderly subjects, day 14
[11] = TS oral 300 mg BID, healthy subjects, day 6
[12] = TS oral 300 mg BID, healthy subjects, day 14
[13] = TS oral 450 mg BID, healthy subjects, day 6
[14] = TS oral 450 mg BID, healthy subjects, day 14

Nc1[nH]ncc1-c1cc(Cl)ccc1Oc1cc(F)c(S(=O)(=O)Nc2cscn2)cc1Cl [4-[2-(5-amino-1H-pyrazol-4-yl)-4-chlorophenoxy]-5-chloro-2-fluoro-N-(1,3-thiazol-4-yl)benzenesulfonamide]
subjects withdrawn due to adverse events [1]: three
median blood uric acid concentration versus LLN ([2]; 450 mg BID, Day 3): fell below LLN
Concentrations of uric acid in blood following dosing ([2]; TS BID for 14 days): decreased
median blood uric acid concentration versus LLN ([2]; all cohorts (300 mg and 450 mg BID), Day 6): below the LLN
time until blood uric acid returned to above the LLN after cessation of dosing ([2]; all subjects (i.e. by Day 16)): ≤ 2 days
excreted fraction of uric acid in urine after dosing ([3]; Day 16): returns to baseline by Day 16
excreted fraction of uric acid in urine during dosing ([3]; TS BID, 24 hour urine): increases during dosing
IC50 [4]: 3.54 µM

Cc1ccc(S(=O)(=O)O)cc1.Nc1[nH]ncc1-c1cc(Cl)ccc1Oc1cc(F)c(S(=O)(=O)Nc2cscn2)cc1Cl [TS, 4-[2-(5-amino-1H-pyrazol-4-yl)-4-chlorophenoxy]-5-chloro-2-fluoro-N-(1,3-thiazol-4-yl)benzenesulfonamide tosylate]
Mean uric acid ([5]; TS oral single dose 200 mg, 0 hours): 5.92 mg/dL
Mean uric acid ([5]; TS oral single dose 200 mg, 48 hours): 5.43 mg/dL
Mean uric acid ([5]; TS oral single dose 600 mg, 0 hours): 6.21 mg/dL
Mean uric acid ([5]; TS oral single dose 600 mg, 48 hours): 5.04 mg/dL
Mean uric acid ([5]; TS oral single dose 1000 mg, 0 hours): 6.40 mg/dL
Mean uric acid ([5]; TS oral single dose 1000 mg, 48 hours): 4.86 mg/dL
Mean uric acid ([2]; TS oral 300 mg BID for 14 days, elderly subjects, day 0): 5.43 mg/dL
Mean uric acid ([2]; TS oral 300 mg BID for 14 days, healthy subjects, day 0): 5.56 mg/dL
Mean uric acid ([2]; TS oral 300 mg BID, elderly subjects, day 3): 3.41 mg/dL
Mean uric acid [2, 9]: 2.99 mg/dL
Mean uric acid ([2]; TS oral 300 mg BID, elderly subjects, day 8): 3.57 mg/dL
Mean uric acid ([2]; TS oral 300 mg BID, elderly subjects, day 10): 3.37 mg/dL
Mean uric acid [2, 10]: 3.59 mg/dL
Mean uric acid ([2]; TS oral 300 mg BID, healthy subjects, day 3): 3.50 mg/dL
Mean uric acid [2, 11]: 3.23 mg/dL
Mean uric acid ([2]; TS oral 300 mg BID, healthy subjects, day 8): 3.54 mg/dL
Mean uric acid ([2]; TS oral 300 mg BID, healthy subjects, day 10): 3.79 mg/dL
Mean uric acid [2, 12]: 3.78 mg/dL
Mean uric acid ([2]; TS oral 450 mg BID for 14 days, healthy subjects, day 0): 5.89 mg/dL
Mean uric acid ([2]; TS oral 450 mg BID, healthy subjects, day 3): 3.05 mg/dL
Mean uric acid [2, 13]: 3.00 mg/dL
Mean uric acid ([2]; TS oral 450 mg BID, healthy subjects, day 8): 3.21 mg/dL
Mean uric acid ([2]; TS oral 450 mg BID, healthy subjects, day 10): 3.45 mg/dL
Mean uric acid [2, 14]: 3.56 mg/dL
Fraction excreted of uric acid ([3]; TS oral 300 mg BID, elderly subjects, day 1): 6.17%
Fraction excreted of uric acid [3, 9]: 13.79%
Fraction excreted of uric acid [3, 10]: 7.66%
Fraction excreted of uric acid ([3]; TS oral 300 mg BID, healthy subjects, day 1): 8.44%
Fraction excreted of uric acid [3, 11]: 17.41%
Fraction excreted of uric acid [3, 12]: 6.43%
Fraction excreted of uric acid ([3]; TS oral 450 mg BID, healthy subjects, day 1): 8.61%
Fraction excreted of uric acid [3, 13]: 19.81%
Fraction excreted of uric acid [3, 14]: 7.69%
solid form stability ([6]; crystalline form, versus free base): better solid form stability than the free base
stability with regard to disassociation ([6]; versus other salts): greater stability with regard to disassociation than other salts
chemical stability ([6]; with regard to formulation and storage, versus free base): improved chemical stability over the free base
aqueous solubility [7]: good aqueous solubility
Fraction excreted of uric acid ([8]; TS oral 300 mg BID, elderly subjects): 13.02%
Fraction excreted of uric acid ([8]; TS oral 300 mg BID, healthy subjects): 14.99%
Fraction excreted of uric acid ([8]; TS oral 450 mg BID, healthy subjects): 17.09%
